How the values were obtained:
L1210 [1] = experiment: Antitumor activity against mouse L1210 cells allografted in DBA/2 HaDD mouse assessed as survival at 75 mg/kg, ip bid administered for 2 days (reference value: 8.7 days); format: functional; details: route intraperitoneal
[2] = Stability of the compound in presence of CR/dCR deaminase; format: ADME
L1210 [3] = experiment: Cytotoxicity against mouse L1210 cells assessed as growth inhibition; format: functional
HeLa = experiment: Cytotoxicity against human HeLa cells assessed as growth inhibition; format: functional
MOLT-4 = experiment: Cytotoxicity against human MOLT4F cells assessed as growth inhibition; format: functional
L1210 [4] = experiment: Antitumor activity against mouse L1210 cells allografted in DBA/2 HaDD mouse assessed as survival at 40 mg/kg, ip bid administered for 2 days (reference value: 8.7 days); format: functional; details: route intraperitoneal

Nc1ccn([C@@H]2O[C@H](CO)[C@@H](O)[C@@H]2N)c(=O)n1
Survival (L1210 [1]): >120 days | Stability [2]: Stable | GI50 (L1210 [3]): 4000 nM | GI50 (HeLa): 30000 nM

[N-]=[N+]=N[C@H]1[C@H](O)[C@@H](CO)O[C@H]1n1ccc(N)nc1=O [CYTARAZID]
GI50 (MOLT-4): 70 nM | Stability [2]: Stable | GI50 (L1210 [3]): 600 nM | Survival (L1210 [4]): >120 days | GI50 (HeLa): 200 nM

Source: ChEMBL document CHEMBL3244160, “Novel arabinofuranosyl derivatives of cytosine resistant to enzymatic deamination and possessing potent antitumor activity” (J Med Chem, 1978)
